Data: ChEMBL document CHEMBL4152218, “Novel hydrazide-hydrazone and amide substituted coumarin derivatives: Synthesis, cytotoxicity screening, microarray, radiolabeling and in vivo pharmacokinetic studies” (Eur J Med Chem, 2018)
Active and inactive are the calls of the source. The rule behind the calls is not given here.

How the values were obtained:
[1] = Selectivity index, ratio of IC50 for hTERT-RPE1 cells to IC50 for human HepG2 cells; assay type: toxicity; conditions: hTERT-RPE1 cells versus HepG2 cells, read-out: Ratio IC50
[2] = test system: HepG2; assay: Effect on C1orf186 gene expression in human HepG2 cells at IC50 after 48 hrs by microarray analysis; assay type: functional, cell-based
[3] = test system: HepG2; assay: Effect on CYP3A4 gene expression in human HepG2 cells at IC50 after 48 hrs by microarray analysis; assay type: ADME, cell-based; conditions: hepg2, 48 h
[4] = test system: HepG2; assay: Effect on CXCR3 gene expression in human HepG2 cells at IC50 after 48 hrs by microarray analysis; assay type: functional, cell-based
[5] = test system: hTERT-BJ; assay: Cytotoxicity against hTERT-BJ cells at 50 uM after 48 hrs by resazurin dye-based fluorescence assay relative to control; assay type: cell-based; conditions: human
[6] = test system: PANC-1; assay: Effect on HIST1H4C gene expression in human PANC1 cells at IC50 after 48 hrs by microarray analysis; assay type: functional, cell-based
[7] = test system: PANC-1; assay: Effect on LIMK1 gene expression in human PANC1 cells at IC50 after 48 hrs by microarray analysis; assay type: functional, cell-based
[8] = test system: PANC-1; assay: Induction of apoptosis in human PANC1 cells assessed as increase in caspase-3/7 activity after 24 hrs by Caspase-Glo 3/7 luminescence assay; assay type: functional, cell-based
[9] = test system: PANC-1; assay: Effect on CTBP2 gene expression in human PANC1 cells at IC50 after 48 hrs by microarray analysis; assay type: functional, cell-based
[10] = test system: HepG2; assay: Effect on MYO 10 gene expression in human HepG2 cells at IC50 after 48 hrs by microarray analysis; assay type: functional, cell-based
[11] = test system: PANC-1; assay: Effect on RNF151 gene expression in human PANC1 cells at IC50 after 48 hrs by microarray analysis; assay type: functional, cell-based
[12] = test system: PANC-1; assay: Effect on PVRL3 gene expression in human PANC1 cells at IC50 after 48 hrs by microarray analysis; assay type: functional, cell-based
[13] = test system: HepG2; assay: Effect on GADD45A gene expression in human HepG2 cells at IC50 after 48 hrs by microarray analysis relative to control; assay type: functional
[14] = test system: HepG2; assay: Effect on TOP2A gene expression in human HepG2 cells at IC50 after 48 hrs by microarray analysis relative to control; assay type: functional
[15] = test system: PANC-1; assay: Effect on NUCKS1 gene expression in human PANC1 cells at IC50 after 48 hrs by microarray analysis; assay type: functional, cell-based
[16] = test system: PANC-1; assay: Effect on CLDN14 gene expression in human PANC1 cells at IC50 after 48 hrs by microarray analysis; assay type: functional, cell-based
[17] = test system: TERT-RPE1; assay: Cytotoxicity against hTERT-RPE1 cells at 6.25 uM after 48 hrs by resazurin dye-based fluorescence assay relative to control; assay type: cell-based; conditions: human, tert-rpe1, 48 h
[18] = test system: PANC-1; assay: Effect on CYP3A4 gene expression in human PANC1 cells at IC50 after 48 hrs by microarray analysis; assay type: ADME, cell-based; conditions: panc-1, 48 h
[19] = test system: PANC-1; assay: Effect on GLULP2 gene expression in human PANC1 cells at IC50 after 48 hrs by microarray analysis; assay type: functional, cell-based
[20] = test system: PANC-1; assay: Effect on THOC2 gene expression in human PANC1 cells at IC50 after 48 hrs by microarray analysis; assay type: functional, cell-based
[21] = test system: PANC-1; assay: Effect on ABCB1 gene expression in human PANC1 cells at IC50 after 48 hrs by microarray analysis; assay type: functional, cell-based
[22] = test system: TERT-RPE1; assay: Cytotoxicity against hTERT-RPE1 cells after 48 hrs by resazurin dye-based fluorescence assay; assay type: cell-based; conditions: Homo sapiens, RPE-1, 48 h
[23] = test system: PANC-1; assay: Effect on CASP7 gene expression in human PANC1 cells at IC50 after 48 hrs by microarray analysis; assay type: functional, cell-based
[24] = test system: PANC-1; assay: Effect on HSPE1 gene expression in human PANC1 cells at IC50 after 48 hrs by microarray analysis; assay type: functional, cell-based
[25] = test system: PANC-1; assay: Effect on MATK gene expression in human PANC1 cells at IC50 after 48 hrs by microarray analysis; assay type: functional, cell-based
[26] = test system: PANC-1; assay: Effect on ELP2P gene expression in human PANC1 cells at IC50 after 48 hrs by microarray analysis; assay type: functional, cell-based
[27] = test system: HepG2; assay: Effect on CASP7 gene expression in human HepG2 cells at IC50 after 48 hrs by microarray analysis; assay type: functional, cell-based
[28] = test system: HepG2; assay: Antiproliferative activity against human HepG2 cells after 48 hrs by resazurin dye-based fluorescence assay; assay type: functional, cell-based; conditions: HepG2, 48 h
[29] = test system: HepG2; assay: Effect on TOP3A gene expression in human HepG2 cells at IC50 after 48 hrs by microarray analysis; assay type: functional, cell-based
[30] = test system: HepG2; assay: Effect on WDR26 gene expression in human HepG2 cells at IC50 after 48 hrs by microarray analysis; assay type: functional, cell-based
[31] = test system: TERT-RPE1; assay: Cytotoxicity against hTERT-RPE1 cells at 50 uM after 48 hrs by resazurin dye-based fluorescence assay relative to control; assay type: cell-based; conditions: human, tert-rpe1, 48 h
[32] = test system: HepG2; assay: Effect on GDF15 gene expression in human HepG2 cells at IC50 by SYBR green-dye based qRT-PCR analysis relative to beta-actin; assay type: functional
[33] = test system: PANC-1; assay: Effect on UPP1 gene expression in human PANC1 cells at IC50 after 48 hrs by microarray analysis; assay type: functional, cell-based
[34] = test system: PANC-1; assay: Effect on RBM39 gene expression in human PANC1 cells at IC50 after 48 hrs by microarray analysis; assay type: functional, cell-based
[35] = test system: HepG2; assay: Effect on DKK1 gene expression in human HepG2 cells at IC50 after 48 hrs by microarray analysis; assay type: functional, cell-based
[36] = test system: TERT-RPE1; assay: Cytotoxicity against hTERT-RPE1 cells at 25 uM after 48 hrs by resazurin dye-based fluorescence assay relative to control; assay type: cell-based; conditions: human, tert-rpe1, 48 h
[37] = test system: PANC-1; assay: Effect on ZNF43 gene expression in human PANC1 cells at IC50 after 48 hrs by microarray analysis; assay type: functional, cell-based
[38] = test system: HepG2; assay: Effect on PRPF4B gene expression in human HepG2 cells at IC50 after 48 hrs by microarray analysis; assay type: functional, cell-based
[39] = test system: HepG2; assay: Effect on CASP7 gene expression in human HepG2 cells at IC50 after 48 hrs by microarray analysis relative to control; assay type: functional
[40] = test system: HepG2; assay: Effect on GRP gene expression in human HepG2 cells at IC50 after 48 hrs by microarray analysis; assay type: functional, cell-based
[41] = test system: HepG2; assay: Effect on LANCL 1 gene expression in human HepG2 cells at IC50 after 48 hrs by microarray analysis; assay type: functional, cell-based
[42] = test system: HepG2; assay: Effect on PYCR1 gene expression in human HepG2 cells at IC50 after 48 hrs by microarray analysis; assay type: functional, cell-based
[43] = target: Cytochrome P450 3A4 (Homo sapiens, UniProt P08684); assay: Inhibition of human recombinant CYP3A4 using luciferin as substrate preincubated for 10 mins followed by substrate addition and measured after 50 mins in presence of NADPH by CYP450-Glo assay; assay type: ADME; conditions: recombinant enzyme
[44] = test system: HepG2; assay: Effect on TNFRSF 19 gene expression in human HepG2 cells at IC50 after 48 hrs by microarray analysis; assay type: functional, cell-based
[45] = test system: HepG2; assay: Effect on TOP3B gene expression in human HepG2 cells at IC50 after 48 hrs by microarray analysis; assay type: functional, cell-based
[46] = test system: HepG2; assay: Effect on PCDH21 gene expression in human HepG2 cells at IC50 after 48 hrs by microarray analysis; assay type: functional, cell-based
[47] = test system: PANC-1; assay: Effect on ABCB4 gene expression in human PANC1 cells at IC50 after 48 hrs by microarray analysis; assay type: functional, cell-based

Sequence of Cytochrome P450 3A4 (P08684 whole entry): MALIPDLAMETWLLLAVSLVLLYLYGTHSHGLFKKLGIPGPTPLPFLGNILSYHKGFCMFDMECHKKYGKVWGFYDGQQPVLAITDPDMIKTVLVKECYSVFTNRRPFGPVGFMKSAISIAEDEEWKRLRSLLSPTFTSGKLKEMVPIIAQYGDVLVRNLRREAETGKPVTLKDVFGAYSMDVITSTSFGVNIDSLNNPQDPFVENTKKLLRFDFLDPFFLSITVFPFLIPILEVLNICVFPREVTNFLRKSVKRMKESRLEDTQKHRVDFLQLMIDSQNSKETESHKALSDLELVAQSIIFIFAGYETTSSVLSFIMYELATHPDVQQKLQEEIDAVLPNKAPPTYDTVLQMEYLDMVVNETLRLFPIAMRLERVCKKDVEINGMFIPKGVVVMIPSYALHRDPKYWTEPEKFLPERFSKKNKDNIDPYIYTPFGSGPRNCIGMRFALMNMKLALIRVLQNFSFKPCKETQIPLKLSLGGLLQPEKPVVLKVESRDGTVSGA

O=C(N/N=C/c1cc2ccccc2nc1Cl)c1cc2cc(Br)ccc2oc1=O
selectivity ratio [1]: > 5.31
Activity [2]: Active
Activity [3]: Active
Activity [4]: Active
Activity [5]: 5.18%
Activity [6]: Active
Activity [7]: Active
Activity [8]: Dose-dependent effect
Activity [9]: Active
Activity [10]: Active
Activity [11]: Active
Activity [12]: Active
fold change (FC) [13]: 1.96
fold change (FC) [14]: -3.57
Activity [15]: Active
Activity [16]: Active
Activity [17]: 0.94%
Activity [18]: Active
Activity [19]: Active
Activity [20]: Active
Activity [21]: Active
IC50 [22]: > 50 µM
Activity [23]: Active
Activity [24]: Active
Activity [25]: Active
Activity [26]: Active
Activity [27]: Active
IC50 [28]: 9.42 µM
Activity [29]: Active
Activity [30]: Active
Activity [31]: 20.18%
fold change (FC) [32]: 3.51
Activity [33]: Active
Activity [34]: Active
Activity [35]: Active
Activity [36]: 19.41%
Activity [37]: Active
Activity [38]: Active
fold change (FC) [39]: 3.18
Activity [40]: Active
Activity [41]: Active
Activity [42]: Active
inhibition (INH) [43]: Dose-dependent effect
Activity [44]: Active
Activity [45]: Active
Activity [46]: Active
Activity [47]: Active
